Measured values published in patent US20230073764A1, “COMPOSITION OF TANNIC ACID AND VITAMIN D AND METHODS OF USE” (Elastogenesis, LLC, priority 2021, published 2023).

Tests used:
human dermal fibroblasts [1] = assay: Immunodetection of elastin in cultured human dermal fibroblasts; type: cell-based
Method: (§1) Biological effects of tannic acid in the presence of hyaluronic acid or ferulic acid were tested on dermal fibroblasts derived from punch biopsies of healthy skin. All fibroblasts were isolated by allowing migration out of skin explants and passaged by trypsinization. Fibroblasts were maintained in alpha-minimum essential medium supplemented with 20 mM HEPES, 1% antibiotics and antimycotics, 1% L-Glutamate and 2% fetal bovine serum (FBS). Cells were plated ([…] cells/dish) to reach confluency and were cultured for 7 days in the presence or absence of hyaluronic acid (0.1%), ferulic acid ([…]), tannic acid (2 μg/mL), or a combination thereof.
(§2) Cell cultures prepared according to Example 1 maintained in the presence or absence of tannic acid, hyaluronic acid, or ferulic acid were fixed in cold 100% methanol at […] for detection of elastin or in 4% paraformaldehyde at room temperature for detection of collagen I. The multiple parallel cultures were incubated with […] of polyclonal antibody to tropoelastin (Elastin Products, Owensville, Mich.), or polyclonal antibody to collagen type I (Chemicon, Temecula, Calif.). Cultures were incubated with the respective fluorescein-conjugated goat anti-rabbit, goat anti-mouse, or rabbit anti-goat secondary antibodies. Nuclei were counter stained with propidium iodide (Sigma, St. Louis, Mo.). All cultures were examined with a Nikon Eclipse E1000 microscope attached to a cooled CCD camera (QImaging, Retiga EX) and analyzed with the computer-generated morphometric analysis system, in which the Image-Pro Plus software (Media Cybernetics, Silver Springs, Md.) estimates the proportion of areas marked with green fluorescence, in relation to the entire (1 square mm) analyzed field.
Cultured human dermal fibroblasts were grown in the presence or absence of tannic acid at low concentration (2 μg/mL) and high concentration (20 μg/mL). Immunodetection of elastin was performed as described in Example 2.
(§3) Cultured human dermal fibroblasts were grown in the presence of or absence of vitamin D (10^−7 M), tannic acid ([…]), or a combination of vitamin D and tannic acid (2 μg/mL) (FIGS. 2A-2B and FIGS. 3A-3C). Immunodetection of elastin was performed as described above.
Cultured human dermal fibroblasts were grown in the presence of or absence hyaluronic acid (0.1%), tannic acid (2 μg/mL), or a combination of hyaluronic acid (0.1%) and tannic acid (2 μg/mL). Immunodetection of elastin was performed as described above.
Cultured human dermal fibroblasts were grown in the presence or absence of ferulic acid (5 μg/mL), tannic acid (2 μg/mL), or a combination of ferulic acid (5 μg/mL) and tannic acid (2 μg/mL). Immunodetection of elastin and collagen I was performed as described above. Results are shown in FIGS. 5A-5C, and FIGS. 6A-6B for elastin and FIGS. 7A-7C and FIG. 8 for collagen.
Cultured human dermal fibroblasts were grown in the presence or absence of ferulic acid (20 μM), tannic acid (2 μg/mL), or copper sulfate (2 μM). Fibroblasts were also grown in presence of a combination of ferulic acid (20 μM) and copper sulfate (2 μM), a combination of ferulic acid (20 μM) and tannic acid (2 μg/mL), and a combination of tannic acid (2 μg/mL) and copper sulfate (2 μM). Immunodetection of elastin was performed as described above.

human dermal fibroblasts [2] = assay: Immunodetection of collagen I in cultured human dermal fibroblasts; type: cell-based; conditions: ferulic acid (5 μg/mL) alone
Method: as §1
as §2, with “All cultures were examined with a Nikon Eclipse E1000 microscope attached to a cooled CCD camera (QImaging, Retiga EX) and analyzed with the computer-generated morphometric analysis system, in which the Image-Pro Plus software (Media Cybernetics, Silver Springs, Md.) estimates the proportion of areas marked with green fluorescence, in relation to the entire (1 square mm) analyzed field.” left out

[3] = cited from earlier work
fibroblast cultures = assay: Tropoelastin in fibroblast cultures measured using PCR; type: cell-based, human; conditions: PCR after 18 hours; tannic acid added to cultures that contained vitamin D3
Method: FIG. 2A depicts the amount of tropoelastin in fibroblast cultures measured using PCR after 18 hours.
as §3

[4] = tannic acid (2 μg/mL) added to hyaluronic acid (0.1%)
[5] = tannic acid (2 μg/mL) added to vitamin D (10^−7 M)

For `O=S(=O)([O-])[O-].[Cu+2]` [copper sulfate, reference compound], the effect on elastin (human dermal fibroblasts [1]; copper sulfate (2 μM)) was “little effect on elastin”.

For `COc1cc(/C=C/C(=O)O)ccc1O` [ferulic acid], the concentrations of collagen (human dermal fibroblasts [2]) was “minimal effect on concentrations of collagen”, the concentrations of elastin (human dermal fibroblasts [1]; ferulic acid (5 μg/mL) alone) was “negative effect on concentrations of elastin” and the effect on elastin (human dermal fibroblasts [1]; ferulic acid (20 μM)) was “leads to a reduction in elastin”.

For `O=C(OC[C@H]1O[C@@H](OC(=O)c2cc(O)c(O)c(OC(=O)c3cc(O)c(O)c(O)c3)c2)[C@H](OC(=O)c2cc(O)c(O)c(OC(=O)c3cc(O)c(O)c(O)c3)c2)[C@@H](OC(=O)c2cc(O)c(O)c(OC(=O)c3cc(O)c(O)c(O)c3)c2)[C@@H]1OC(=O)c1cc(O)c(O)c(OC(=O)c2cc(O)c(O)c(O)c2)c1)c1cc(O)c(O)c(OC(=O)c2cc(O)c(O)c(O)c2)c1` [tannic acid], the pKa [3] is listed as “about 6”, the amount of tropoelastin (fibroblast cultures) is listed as “increased the amount of tropoelastin” and the production of elastin (human dermal fibroblasts [1]; tannic acid (2 μg/mL) added to ferulic acid (5 μg/mL)) is listed as “improved production of elastin even in the presence of ferulic acid”. For the same molecule, the elastin fiber formation (human dermal fibroblasts [1]; [4]) was “abolished the inhibitory effect of hyaluronic acid on elastin fiber formation”, the “net deposition of elastin” value (human dermal fibroblasts [1]; [4]) was “caused an improvement in net deposition of elastin” and the elastin fiber formation (human dermal fibroblasts [1]; [5]) was “abolished the inhibitory effect of vitamin D on elastin fiber formation”. For the same molecule, the “net deposition of elastin” value (human dermal fibroblasts [1]; [5]) was “caused an improvement in net deposition of elastin”, the elastin concentration (human dermal fibroblasts [1]; tannic acid at high concentration (20 μg/mL)) was “caused elastosis” and the elastin concentration (human dermal fibroblasts [1]; tannic acid at low concentration (2 μg/mL), compared to high concentration) was “improved elastin concentration”.

In the case of hyaluronic acid, the elastin production (human dermal fibroblasts [1]; hyaluronic acid (0.1%) alone) is reported as “causes inhibition of elastin production”.

For vitamin D [reference compound], the elastin production (human dermal fibroblasts [1]; vitamin D (10^−7 M) alone) was “causes inhibition of elastin production”.
